Here are results for five compounds from US8680282B2, “Cyclic inhibitors of carnitine palmitoyltransferase and treating cancer” (University Health Network, priority 2007, dated 2014).

One assay deals with Caov-3. Nature of the assay: Cancer cell growth inhibition, SRB assay. The format is cell-based. The following applies: Homo sapiens, 144 h; Caov-3 (Ovarian); SRB at Day 6; triplicate. On the technique in general: The SRB assay estimates cell density from bound dye.
In another assay the test system is Hs578T. Put plainly: Cancer cell growth inhibition, SRB assay. The assay is classed as cell-based. The following applies: Homo sapiens, Hs-578T, 144 h; Hs578T (Breast); SRB at Day 6; triplicate.
In the next assay the test system is SW480. Nature of the assay: Cancer cell growth inhibition, SRB assay. The assay is classed as cell-based, human. As to conditions: Homo sapiens, 144 h; SW480 (Colon); SRB at Day 6; triplicate.
The subject of a further assay is HCT-15. Nature of the assay: Cancer cell growth inhibition, SRB assay. As to conditions: Homo sapiens, 144 h; HCT-15 (Colon); SRB at Day 6; triplicate. The assay is classed as cell-based, human.
The target of another assay is T1, human CPT1A (Homo sapiens, UniProt P50416).
T1 construct: made in house; host or cells: Saccharomyces cerevisiae (pESC-trp) or cultured mammalian cells (pCDNA3.1); mitochondrial extract
T1 sequence (P50416 1-773): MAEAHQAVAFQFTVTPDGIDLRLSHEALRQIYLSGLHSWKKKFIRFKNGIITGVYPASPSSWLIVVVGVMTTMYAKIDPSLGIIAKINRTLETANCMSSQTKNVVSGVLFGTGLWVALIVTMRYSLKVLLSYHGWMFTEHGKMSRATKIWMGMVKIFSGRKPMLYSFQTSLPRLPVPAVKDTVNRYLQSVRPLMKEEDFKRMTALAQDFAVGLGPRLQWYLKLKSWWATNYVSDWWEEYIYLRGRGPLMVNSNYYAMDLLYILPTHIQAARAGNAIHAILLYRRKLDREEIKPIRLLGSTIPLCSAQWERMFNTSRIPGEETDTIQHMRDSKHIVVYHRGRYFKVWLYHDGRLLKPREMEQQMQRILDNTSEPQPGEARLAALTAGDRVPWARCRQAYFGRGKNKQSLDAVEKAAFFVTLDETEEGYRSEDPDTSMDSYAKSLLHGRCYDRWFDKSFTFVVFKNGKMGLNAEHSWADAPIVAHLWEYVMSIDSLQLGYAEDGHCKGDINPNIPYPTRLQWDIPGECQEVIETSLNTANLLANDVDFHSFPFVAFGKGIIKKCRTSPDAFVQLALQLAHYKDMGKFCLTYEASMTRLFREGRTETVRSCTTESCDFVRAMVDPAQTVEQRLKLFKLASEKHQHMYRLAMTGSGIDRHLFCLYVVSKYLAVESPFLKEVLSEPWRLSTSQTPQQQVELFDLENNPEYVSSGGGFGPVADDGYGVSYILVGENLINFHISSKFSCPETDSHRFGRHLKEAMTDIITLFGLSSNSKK
Put plainly: Human CPT1A LC/MS assay. The format is biochemical. As to conditions: human CPT1A LC/MS assay, dose response format.

As a reminder, the GI50 is the concentration giving 50% growth inhibition. For orientation: IC50 means the concentration that inhibits the measured activity by half. Read a low IC50 as greater potency in that assay. For `CCCCCCCCc1ccc(NS(=O)(=O)NC2(CC(=O)O)CCCN(C)C2)cc1` (stereo not shown) [Example S15, 3-(carboxymethyl)-1-methyl-3-(N-(4-octylphenyl)sulfamoylamino)-piperidinium 2,2,2-trifluoroacetate], the 50% growth inhibitory concentration (GI50) stood at 4 µM in the assay with Caov-3, 25 µM in the assay with Hs578T, 36 µM with SW480 and 32 µM with HCT-15. At human CPT1A, this compound showed an IC50 of 10 to 100 µM.
`CCCCCCCCc1ccc(NC(=O)NC2(CC(=O)O)CNC2)cc1` [Example S23, 3-(carboxymethyl)-3-(3-(4-octylphenyl)ureido)azetidinium 2,2,2-trifluoroacetate]: the GI50 is 17 µM with Caov-3, 45 µM in the assay with Hs578T, 28 µM in the assay on SW480 and 28 µM in the assay on HCT-15. In addition, the IC50 against human CPT1A is 1000 to 2500 µM.
As for `CCCCCCCCc1ccc(NS(=O)(=O)NC2(CC(=O)O)CCN(C)CC2)cc1` [Example S7, 4-(carboxymethyl)-1-methyl-4-(N-(4-octylphenyl)sulfamoylamino)-piperidinium 2,2,2-trifluoroacetate], the 50% growth inhibitory concentration (GI50) in the assay with Caov-3 was 22 µM; with Hs578T it was greater than 50 µM; with SW480, 68 µM; in the assay on HCT-15, 80 µM. At human CPT1A, this compound came in with an IC50 of 10 to 100 µM.
`CCCCCCCCc1ccc(NS(=O)(=O)NC2(CC(=O)O)CCC[N+](C)(C)C2)cc1` (stereo not shown) [Example S16, 3-(carboxymethyl)-1,1-dimethyl-3-(N-(4-octylphenyl)sulfamoylamino)-piperidinium 2,2,2-trifluoroacetate]: the GI50 amounted to 2.5 µM in the assay on Caov-3, 17 µM with Hs578T, 4 µM with SW480 and 36 µM in the assay with HCT-15. For the same compound, the concentration for half-maximal inhibition (IC50) on human CPT1A is 1 to 10 µM.
Turning to `CCCCCCCCc1ccc(NC(=O)NC2(CC(=O)O)C[N+](C)(C)C2)cc1` [Example S24, 3-(Carboxymethyl)-1,1-dimethyl-3-(3-(4-octylphenyl)ureido)azetidinium 2,2,2-trifluoroacetate], the 50% growth inhibitory concentration (GI50) in the assay with Caov-3 is 45 µM; in the assay with Hs578T, 46 µM; with SW480, 29 µM; with HCT-15, 38 µM. Besides, the IC50 against human CPT1A fell in the range of 10 to 100 µM.
